Drawing on patent publication US8778941B2, “TRPM8 antagonists and their use in treatments” (AMGEN Inc., priority 2011, dated 2014), this text covers IC50 for twelve molecules.

The structures appear in SMILES notation.

The assay deals with T1, human TRPM8 (Homo sapiens, UniProt Q7Z2W7).
T1 construct: expressed in transfected cells; host or cells: Chinese hamster ovary (CHO) cells, T-REx tetracycline-inducible expression system (Invitrogen), co-transfected with pcDNA3.1 jellyfish aequorin
T1 sequence (Q7Z2W7 whole entry): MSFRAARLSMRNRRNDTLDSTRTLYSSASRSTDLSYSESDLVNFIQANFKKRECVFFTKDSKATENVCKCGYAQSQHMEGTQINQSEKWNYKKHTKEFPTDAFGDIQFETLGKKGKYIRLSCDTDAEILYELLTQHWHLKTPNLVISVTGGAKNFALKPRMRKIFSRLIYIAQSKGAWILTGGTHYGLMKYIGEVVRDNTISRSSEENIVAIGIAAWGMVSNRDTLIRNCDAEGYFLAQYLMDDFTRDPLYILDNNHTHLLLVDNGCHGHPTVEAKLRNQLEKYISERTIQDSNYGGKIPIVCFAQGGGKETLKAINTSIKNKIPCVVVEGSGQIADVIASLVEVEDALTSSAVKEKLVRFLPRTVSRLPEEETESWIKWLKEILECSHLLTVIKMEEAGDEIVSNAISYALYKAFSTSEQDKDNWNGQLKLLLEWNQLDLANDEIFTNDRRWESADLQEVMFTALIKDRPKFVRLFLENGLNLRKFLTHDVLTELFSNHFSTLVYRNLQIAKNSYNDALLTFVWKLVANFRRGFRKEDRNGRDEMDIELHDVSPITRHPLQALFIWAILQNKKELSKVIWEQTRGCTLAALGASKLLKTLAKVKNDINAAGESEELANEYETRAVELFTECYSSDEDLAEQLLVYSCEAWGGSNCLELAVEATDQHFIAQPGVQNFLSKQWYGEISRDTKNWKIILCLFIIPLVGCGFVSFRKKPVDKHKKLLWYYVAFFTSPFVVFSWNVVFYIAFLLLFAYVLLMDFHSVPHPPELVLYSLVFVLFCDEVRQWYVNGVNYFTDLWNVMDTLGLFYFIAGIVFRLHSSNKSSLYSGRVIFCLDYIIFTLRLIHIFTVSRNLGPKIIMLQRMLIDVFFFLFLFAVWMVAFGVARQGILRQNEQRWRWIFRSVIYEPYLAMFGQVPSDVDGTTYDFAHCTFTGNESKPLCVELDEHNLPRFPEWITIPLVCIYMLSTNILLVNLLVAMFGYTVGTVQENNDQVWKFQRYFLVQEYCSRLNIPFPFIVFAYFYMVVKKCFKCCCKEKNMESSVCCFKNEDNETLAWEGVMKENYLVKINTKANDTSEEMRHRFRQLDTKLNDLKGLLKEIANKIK
Description: Luminescence readout assay for measuring intracellular calcium (aequorin), hTRPM8 antagonism. The settings on record: CHO cell line expressing human TRPM8 and aequorin; activation by icilin, L-menthol or cold buffer (table does not say which). The assay is classed as cell-based.
Regarding `COc1cc(CNC(=O)N[C@@H](c2ccc(C(F)(F)F)cc2)c2ncccc2C(F)(F)F)cc(OC)c1OC` [Example 111, (S)-1-((4-(trifluoro-methyl)-phenyl)(3-(trifluoro-methyl)-pyridin-2-yl)-methyl)-3-(3,4,5-trimethoxy-benzyl)urea (2,2,2-trifluoro-acetate)], the IC50 (as a rule, the concentration needed to halve the response being measured) came out at 2380 nM. As for `COc1cc(NC(=O)N[C@@H](c2ccc(C(F)(F)F)cc2)c2ncccc2C(F)(F)F)cc(OC)c1OC` [Example 112, (S)-1-((4-(trifluoro-methyl)-phenyl)(3-(trifluoro-methyl)-pyridin-2-yl)-methyl)-3-(3,4,5-trimethoxy-phenyl)urea (2,2,2-trifluoro-acetate)], the IC50 stood at 287 nM. Take `O=C(Nc1cccs1)N[C@@H](c1ccc(C(F)(F)F)cc1)c1ncccc1C(F)(F)F` [Example 113, (S)-1-(thiophen-2-yl)-3-((4-(trifluoro-methyl)-phenyl)(3-(trifluoro-methyl)-pyridin-2-yl)-methyl)urea (2,2,2-trifluoro-acetate)]: the IC50 amounted to 175 nM.

On to `O=C(Nc1cccnc1)NC(c1ccc(C(F)(F)F)cc1)c1cccnc1Br` (stereo not drawn) [Example 114, 1-((2-bromopyridin-3-yl)(4-(trifluoro-methyl)-phenyl)-methyl)-3-(pyridin-3-yl)-urea (2,2,2-trifluoro-acetate)], for which the IC50 was determined as 886 nM. On to `O=C(Nc1cccnc1)N[C@@H](c1ccc(C(F)(F)F)cc1)c1ccccc1Br` [Example 115, (S)-1-((2-bromophenyl) (4-(trifluoro-methyl)-phenyl)-methyl)-3-(pyridin-3-yl)-urea 2,2,2-trifluoro-acetate (2,2,2-trifluoro-acetate)], for which the IC50 came out at 154 nM. Turning to `CC(C)(C)NC(=O)N[C@@H](c1ccc(C(F)(F)F)cc1)c1ccccc1Br` [Example 116, (S)-1-((2-bromophenyl) (4-(trifluoro-methyl)-phenyl)-methyl)-3-tert-butylurea], the IC50 was 133 nM.

As for `O=C(Nc1cccnc1)N[C@H](c1cccc(C(F)(F)F)c1)c1ccc(C(F)(F)F)c(F)c1` [Example 117, (R)-1-((3-fluoro-4-(trifluoro-methyl)-phenyl)(3-(trifluoro-methyl)-phenyl)-methyl)-3-(pyridin-3-yl)-urea (2,2,2-trifluoro-acetate)], the IC50 was determined as 1750 nM. For `COC(=O)c1ccccc1NC(=O)N[C@@H](c1ccc(C(F)(F)F)cc1)c1ncccc1F` [Example 118, (S)-methyl 2-(3-((3-fluoro-pyridin-2-yl)-(4-(trifluoro-methyl)-phenyl)-methyl)-ureido)-benzoate], the IC50 was determined as 162 nM. In the case of `O=C(Nc1cccnc1)N[C@@H](c1ccc(C(F)(F)F)cc1)c1cnccc1C(F)(F)F` [Example 119, (S)-1-(pyridin-3-yl)-3-((4-(trifluoro-methyl)-phenyl)(4-(trifluoro-methyl)-pyridin-3-yl)-methyl)urea bis(2,2,2-trifluoro-acetate)], the IC50 was found to be 375 nM. As to `O=C(Nc1cccnc1)NC(c1ccc(C(F)(F)F)cc1)c1ccncc1Br` (stereo not drawn) [Example 120, 1-((3-bromopyridin-4-yl)(4-(trifluoro-methyl)-phenyl)-methyl)-3-(pyridin-3-yl)-urea (2,2,2-trifluoro-acetate)], the IC50 worked out at 2850 nM.

For `O=C(Nc1cccnc1)N[C@@H](c1ccc(C(F)(F)F)c(F)c1)c1ccccc1C(F)(F)F` [Example 121, (S)-1-((3-fluoro-4-(trifluoro-methyl)-phenyl)(2-(trifluoro-methyl)-phenyl)-methyl)-3-(pyridin-3-yl)-urea], the IC50 stood at 84 nM. For the molecule `FC(F)(F)c1ccc([C@H](NC(=S)Nc2cccnc2)c2ncccc2C(F)(F)F)cc1` [Example 122, (S)-1-(pyridin-3-yl)-3-((4-(trifluoro-methyl)-phenyl)(3-(trifluoro-methyl)-pyridin-2-yl)-methyl)-thiourea], the IC50 was 221 nM.
